Data reported in PubChem BioAssay (NCI).
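Five compound concentrations were applied to cells in 96-well plates for 48 hours; endpoints were derived by simple linear interpolation of the resulting dose-response curve. GI50: concentration for 50% inhibition of growth. Definition used: TGI = concentration required for complete inhibition of growth.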

Experiments:
Experiment in all cases: NCI-60 cell line screen, 48 h
MDA-MB-435 = test system: MDA-MB-435
OVCAR-8 ovarian = test system: OVCAR-8 ovarian
HS 578T breast = test system: HS 578T breast
NCI/ADR-RES ovarian = test system: NCI/ADR-RES ovarian
NCI-H23 lung = test system: NCI-H23 lung
LOX IMVI melanoma = test system: LOX IMVI melanoma
BT-549 breast = test system: BT-549 breast
SN12C renal = test system: SN12C renal
COLO 205 colon = test system: COLO 205 colon
NCI-H522 lung = test system: NCI-H522 lung

SMILES | TGI (MDA-MB-435) | TGI (OVCAR-8 ovarian) | TGI (HS 578T breast) | TGI (NCI/ADR-RES ovarian) | TGI (NCI-H23 lung) | TGI (LOX IMVI melanoma) | TGI (BT-549 breast) | TGI (SN12C renal) | TGI (COLO 205 colon) | TGI (NCI-H522 lung) | GI50 (NCI-H522 lung) | GI50 (MDA-MB-435) | GI50 (OVCAR-8 ovarian) | GI50 (HS 578T breast) | GI50 (NCI/ADR-RES ovarian) | GI50 (NCI-H23 lung) | GI50 (SN12C renal) | GI50 (COLO 205 colon) | GI50 (LOX IMVI melanoma) | GI50 (BT-549 breast)
OCC1NC(CO)C(O)C1O (centres undefined) | > 100 µM | > 100 µM | > 100 µM | > 100 µM | > 100 µM | > 100 µM | > 100 µM | > 100 µM | > 100 µM | – | – | – | – | – | – | – | – | – | – | –
Nc1ccc(C2(c3ccc(N)cc3)C3CC4CC(C3)CC2C4)cc1 | 31.5 µM | 35.5 µM | – | 23.4 µM | 28.7 µM | 39.7 µM | 25.2 µM | 45.7 µM | – | 30.5 µM | – | – | – | – | – | – | – | – | – | –
O=Nn1c2ccccc2c2ccccc21 | > 100 µM | > 100 µM | > 100 µM | > 100 µM | > 100 µM | > 100 µM | > 100 µM | > 100 µM | 33.2 µM | > 100 µM | – | – | – | – | – | – | – | – | – | –
CC(C)N(CCNc1nc(C(Cl)(Cl)Cl)nc2cc(Cl)ccc12)C(C)C | 3.47 µM | 3.4 µM | 3.99 µM | 3.39 µM | 3.47 µM | – | – | 3.76 µM | 3.61 µM | 2.63 µM | 1.16 µM | 1.71 µM | 1.83 µM | 1.56 µM | 1.54 µM | 1.61 µM | 1.69 µM | 1.8 µM | – | –
Cc1ccc(S(=O)(=O)NCCCSCCN)cc1 | > 100 µM | > 100 µM | > 100 µM | > 100 µM | > 100 µM | > 100 µM | – | > 100 µM | > 100 µM | > 100 µM | – | – | – | – | – | – | – | – | – | –
COc1ncnc2c(Cl)c(C(O)c3ccccc3)c(Cl)cc12 (centres undefined) | 21.3 µM | > 100 µM | 49.9 µM | > 100 µM | > 100 µM | > 100 µM | 66.1 µM | 86.8 µM | > 100 µM | > 100 µM | – | – | – | – | – | – | – | – | – | –
Fc1ccc(C2CC(c3cccc(Nc4ccncc4)c3)=NN2c2ccccc2)cc1 (centres undefined) | 3.14 µM | – | 3.8 µM | 3.13 µM | 3.33 µM | 3.02 µM | 3.46 µM | 3.21 µM | 4.91 µM | 3.98 µM | 1.81 µM | 1.63 µM | – | 1.81 µM | 1.65 µM | 1.75 µM | 1.71 µM | 2.35 µM | 1.66 µM | 1.68 µM
O=C(Nc1ccc(C(F)(F)F)cc1[N+](=O)[O-])C(=O)Nn1c(=S)[nH]c2ccccc2c1=O | – | > 100 µM | – | – | > 100 µM | > 100 µM | – | > 100 µM | > 100 µM | > 100 µM | – | – | – | – | – | – | – | – | – | –
CCOP(=O)(OCC)C(Cc1c[nH]c2ccccc12)C(=O)O (centres undefined) | > 100 µM | > 100 µM | > 100 µM | > 100 µM | > 100 µM | > 100 µM | – | > 100 µM | > 100 µM | > 100 µM | – | – | – | – | – | – | – | – | – | –
CC=C/C=C/[C@@H]1O[C@](O)([C@H](CC)C(=O)NC/C=C/C=C(\C)[C@@H](OC)[C@@H](C)[C@@H]2O[C@H](/C=C/C=C/C=C(\C)C(=O)c3c(O)cc[nH]c3=O)[C@H](O)[C@@H]2O)[C@H](O)[C@H](O)C1(C)C | > 100 µM | > 100 µM | > 100 µM | > 100 µM | > 100 µM | – | – | – | – | > 100 µM | – | – | – | – | – | – | – | – | – | –
COc1ccc(/C=C/c2cc(O)cc(OC3OC(CO)C(O)C(O)C3O)c2)cc1O (centres undefined) | > 100 µM | > 100 µM | > 100 µM | > 100 µM | – | > 100 µM | > 100 µM | > 100 µM | > 100 µM | > 100 µM | – | – | – | – | – | – | – | – | – | –
COc1ccc(CCn2ccc(C)n2)c(OC)c1 | > 100 µM | > 100 µM | > 100 µM | > 100 µM | > 100 µM | > 100 µM | > 100 µM | > 100 µM | > 100 µM | – | – | – | – | – | – | – | – | – | – | –
